{"source": "patent US11420962B2", "about": "“Indene derivatives useful in treating pain and inflammation” (TARO PHARMACEUTICALS INC., priority 2018, dated 2022)", "key": {"[1]": {"tested_on": "T cells", "assay": "T cell proliferation (anti-CD3/anti-CD28 dynabeads, CCK-8)", "type": "cell-based, mice", "conditions": "Table 4, mouse T cells, 72 hours after dynabeads, read-out: Scoring (IC50, cell proliferation)", "protocol": "Spleens were obtained from six male, CD-1 outbred mice, approximately 8 weeks old. Cells were harvested under sterile conditions by forcing each spleen though a cell filter (pore size 100 μm diameter). A homogenous cell suspension was obtained by washing the cells in fresh medium and passing cells through a smaller cell filter (pore size 70 μm).\nUntouched T cells were isolated using the Pan T cell isolation kit (Miltenyi Biotech). Briefly, cells were counted and incubated with the required volume of antibody cocktail for 5 minutes at 4° C. before addition of microbeads and incubation for 10 minutes at 4° C. Labeled cells were retained in a magnetic column while unlabeled cells (T cells) passed through the column and were retained for use in the assay.\nCell viability was assessed by Trypan Blue exclusion and found to be >99% prior to transfer to plates. Isolated T cells were seeded out in 96 well plates at a density of 50,000 cells per well and allowed to incubate for 60 minutes in a humidified cell culture (37° C., 5% CO2) incubator prior to compound treatment. The media used for this assay (TexMACS, Miltenyi Biotech) was previously optimized for proliferation of T cells in serum free conditions.\nRepresentative compounds of the invention (i.e., test compounds) were prepared as 30 mM stocks in 100% DMSO. Test compounds were initially diluted in media to yield 3 mM stocks before an additional 1:10 dilution in media was performed to yield working stocks of 300 μM (1% DMSO). Subsequent dilutions were performed in media (supplemented with 1% DMSO). When added to the assay plates (1:10 dilution), these yielded final concentrations in the assay plates of in 0.1% DMSO. The reference compound, Cyclosporin A, was prepared in an identical manner as above.\nUnstimulated and Stimulated Control wells received an identical volume of TexMACS media/1% DMSO at this time, resulting in a final concentration of 0.1% DMSO across the plate. Mouse anti-CD3/anti-CD28 dynabeads were prepared (following the manufacturers' instructions) in TexMACS media and added to appropriate wells to achieve a final concentration of 1 bead per cell. Unstimulated Control wells then received an identical volume of TexMACS. Plates were centrifuged 72 hours after addition of dynabeads, (300×g for 3 minutes) to pellet the cells and 60% of the supernatant was removed to a fresh plate for analysis by ELISA. After removal of 60% of the supernatant for subsequent ELISA, cell proliferation was assessed using the CCK-8 assay.\nAverage response by the standard compound, cyclosporin A, was 1 uM."}, "[2]": {"tested_on": "Mice (male, C57Bl/6)", "assay": "Pulmonary LPS challenge assay in mice", "type": "in vivo", "conditions": "30 mg/kg, oral gavage once daily for three days; BALF 24 h post LPS", "protocol": "Mice (male, C57Bl/6) were acclimatized for a period of about 7 days before initiation of the experiment and randomized on the day prior to treatment. Mice received vehicle or representative test compounds of the invention (i.e., test compounds) once daily for three days by oral gavage on Day −2, Day −1 and on Day 0 (the last dose being 1 h prior to LPS administration). One group of mice received the reference standard, dexamethasone, once, IP on Day 0 at 1 h prior to LPS administration. Pulmonary inflammation was induced in all animals except the sham control animals by intratracheal instillation of 20 μg LPS per animal in 50 μl saline. Sham control animals received 50 μl saline alone.\nTwenty-four hours post LPS administration, animals were euthanized and the trachea was cannulated. Cold Hanks Balanced Salt Solution (HBSS) (SIGMA; Catalogue number: H1387), pH 7.2, was infused into the lungs and bronchoalveolar lavage fluid (BALF) was collected.\nTotal leukocyte counts were performed from the collected BALF using a mini flow-cytometer and differential counts were performed in cytospin smears stained with Leishman's staining manually. ELISA kits were used for quantification of cytokines in the BALF (TNFα, IL-1β, IL-6 and KC). Reagents, samples and standards were prepared as per kit manual. Total protein analysis in BALF samples were performed using the Biorad protein assay reagent. […]"}, "[3]": {"tested_on": "Mice (male, C57Bl/6)", "assay": "Formalin pain assay in mice", "type": "in vivo", "protocol": "Mice (male, C57BL/6) were placed singly in a Perspex chamber for approximately 30 min on three successive days to acclimate and thereby reduce stress-induced behaviors. On the fourth day, the experimental animals received a 25 μl injection of 2.5% formalin beneath the left plantar skin using a 29-gauge syringe. […] The total time spent on flinches/licking/biting of the hind paw was recorded by visual observation for every 5 min period/interval for total observation duration of 60 min in two phases, the early phase (0-5 min) and the late phase (15-40 min). Observers were blinded to the treatment group allocation.\nFor test compounds, the % protection from 0-60 min was used to assess activity. Scoring for the test compounds was as follows: “A” represents a % protection of 81 to 100%, “B” represents a % protection of 61 to 80%, “C” represents a % protection of 31 to 60% and “D” represents a % protection of 0 to 30%."}, "[4]": {"tested_on": "Rats (male, Sprague-Dawley)", "assay": "Rat carrageenan-induced hyperalgesia and paw edema", "type": "in vivo", "conditions": "30 mg/kg, administered at the time of, or 1 h after challenge", "protocol": "Representative compounds of the invention (i.e., test compounds) were administered PO, QD for 3 days prior to carrageenan injection, once at 1 h prior to carrageen, or at 5 min or 1 h post-challenge to rats (male, Sprague-Dawley). Rats received either an intraplantar injection of saline (sham) or carrageen (0.1 mL of a 2% solution [w/v]) in the right hind paw. Mechanical hyperalgesia (using an analgesymeter) and paw volume (using a digital plethysmometer) were measured at baseline (0 hr), 2, 4 and 6 h post carrageenan injection for all the animals. Celecoxib, given 1 h prior to carrageen challenge, was used as a reference standard."}}}
{"smiles": "C=C1CC[C@H]2[C@H](CN)[C@@H]([C@@]3(C)Cc4cn[nH]c4C[C@@H]3CO)CC[C@]12C", "note": "[Ia-1, ((5R,6S)-5-((3aS,4R,5S,7aS)-4-(aminomethyl)-7a-methyl-1-methyleneoctahydro-1H-inden-5-yl)-5-methyl-4,5,6,7-tetrahydro-1H-indazol-6-yl)methanol]", "values": [{"measurement": "IC50", "setting": "[1]", "result": "6 to 15", "unit": "µM"}, {"measurement": "% protection from neutrophilia", "setting": "[2]", "result": 44, "unit": "%"}, {"measurement": "% inhibition, early phase (neurogenic pain)", "setting": "[3]; 30 mg/kg dose, 0-5 min", "result": 59, "unit": "%"}, {"measurement": "% inhibition, late phase (inflammatory pain)", "setting": "[3]; 30 mg/kg dose, 15-40 min", "result": 52, "unit": "%"}, {"measurement": "Scoring (% protection from 0-60 min)", "setting": "[3]; Table 7, formalin 2.5%, left plantar", "result": "B (a % protection of 61 to 80%)"}, {"measurement": "average increase in the paw withdrawal threshold as compared to the vehicle", "setting": "[4]", "result": 41, "unit": "%"}]}
